Measured values as given in patent US20220062391A1, “ENHANCING EPITHELIAL OR ENDOTHELIAL BARRIER FUNCTION” (UNIVERSITY OF ROCHESTER, priority 2019, published 2022).

How the values were obtained:
ATI cells [1] = assay: TEER of alveolar epithelial monolayers on transwell plates; assay type: cell-based, rat
Procedure: Primary rat alveolar epithelial type II cells were isolated using an IgG-panning approach as described by Dobbs (74). Briefly, lungs from Sprague Dawley rats (200-250 g) were surgically removed and perfused, lavaged, and treated with 1 mg/ml of elastase (WORTHINGTON BIOCHEMICAL, Lakewood, N.J.) to release the epithelial cells. Next, lung lobes were separated, cut, minced, filtered and spin down at 1500 rpm for 15 minutes. The cells were resuspended with DMEM without FBS and transferred into two IgG plates. After incubation at 37° C. for one hour, non-adhered cells (predominately ATII cells) were transferred to a new tube and centrifuged at 1500 rpm for 15 minutes. The cells were resuspended in DMEM containing 10% FBS and plated on fibronectin coated plates. To coat the plates with fibronectin, 20 μg/ml of fibronectin from bovine plasma (F1141, SIGMA-ALDRICH, St. Louis, Mo.) was added to 100 mm culture plates (using 3 ml) or the upper chamber of the transwell plates (using 400 μl). Plates were left at 37° C. for 3 hours. Residual solution was removed, and plates were dried in a tissue culture hood for at least 30 minutes before cells were added. 16HBE14o-human bronchial epithelial cells were cultured in Dulbecco's modified Eagle's medium as previously reported (18).
Prior to the assay, cells cultured on 12-well transwell plates (12 mm transwell with 0.4 μm pore polyester membrane insert; CORNING, Corning, N.Y.) were moved to the tissue culture hood for 15 minutes to allow the medium equilibrate to room temperature. TEER was measured using an epithelial voltmeter (EVOM2; WORLD PRECISION INSTRUMENTS, Sarasota, Fla.). Three readings were recorded and averaged for each well. To calculate TEER, the resistance of the fibronectin-coated insert without cells (blank resistance) was subtracted from the measured resistance, then multiplied by 1.12 cm^2 to account for the surface area of the insert.

ATI cells [2] = assay: Western blot of tight junction proteins in transfected ATI cells; assay type: cell-based, rat; conditions: 24 hours
Procedure: (§1) Primary rat alveolar epithelial type II cells were isolated using an IgG-panning approach as described by Dobbs (74). Briefly, lungs from Sprague Dawley rats (200-250 g) were surgically removed and perfused, lavaged, and treated with 1 mg/ml of elastase (WORTHINGTON BIOCHEMICAL, Lakewood, N.J.) to release the epithelial cells. Next, lung lobes were separated, cut, minced, filtered and spin down at 1500 rpm for 15 minutes. The cells were resuspended with DMEM without FBS and transferred into two IgG plates. After incubation at 37° C. for one hour, non-adhered cells (predominately ATII cells) were transferred to a new tube and centrifuged at 1500 rpm for 15 minutes. The cells were resuspended in DMEM containing 10% FBS and plated on fibronectin coated plates. […]
(§2) Cells were lysed with reporter lysis buffer (lx, PROMEGA), supplemented with protease inhibitor (COMPLETE, Mini, EDTA-free tablets; ROCHE, Basel, Switzerland) and phosphatase inhibitor (PHOSSTOP Phosphatase Inhibitor Cocktail; ROCHE, Basel, Switzerland). […] After incubation with secondary antibody and development, bands were detected on film (BIOMAX MR film; […] HEALTH, Rochester, N.Y.) or using the CHEMIDOC IMAGING SYSTEM (BIO-RAD, Hercules, Calif.) and quantified using the IMAGE STUDIO™ LITE software (LI-COR, Lincoln, Nebr.) or the IMAGE LAB SOFTWARE (BIO-RAD, Hercules, Calif.).

16HBE14o-cells = assay: Doxycycline-inducible β1 expression, immunoblot in 16HBE14o- cells; assay type: cell-based, human; conditions: 24 hours post transfection
Procedure: as §1, with “minutes.” for “minutes. The cells were resuspended in DMEM containing 10% FBS and plated on fibronectin coated plates.”
as §2
Given that the β1 subunit increased protein expressions of tight junctions in ATI cells, their localization in these cells was analyzed. […]

mouse lungs = assay: Alveolar fluid clearance (AFC) in live mice; assay type: in vivo; conditions: two days after gene transfer, or 10^−8 mol/L in the instillation solution
Procedure: (§3) Male C57BL/6 mice (9-11 weeks) were anesthetized with isoflurane and 100 μg of each individual plasmid were delivered in 50 μl of 10 mM Tris-HCl (pH 8.0), 1 mM EDTA, and 140 mM NaCl, to mouse lungs by aspiration (when both β1 and MRCKα were delivered, 100 μg of each were administered prior to electroporation) as previously described in Lin, X., et al., Gene Ther 23: 489-99. Eight, 10 msec square wave pulses at a field strength of 200 V/cm were immediately applied using cutaneous electrophysiology electrodes (MEDTRONIC, Redmond, Wash.) placed on the mouse chest with an ECM830 electroporator (BTX, HARVARD […], Holliston, Mass.). […]
The method used in this study was performed in live mice as previously described in Lin, X., et al., Gene Ther 23: 489-99 and Mutlu, G. M., et al., Circ Res 94: 1091-100. […] Protein concentration in the aspirate was assessed using a Bradford assay (BIO-RAD LABORATORIES, Hercules, Calif.) and AFC was calculated using following equation: AFC=1−(C0/C30), where C0, is the protein concentration of the instillate before instillation, and C30 is the protein concentration of the sample obtained at the end of 30 minutes of mechanical ventilation. Clearance is expressed as a percentage of total instilled volume cleared/30 minutes. […]

ATI cells [3] = assay: Permeability to fluorescent dextran tracers; assay type: cell-based, rat; conditions: 1 μg/ml
Procedure: Permeability to fluorescent tracers was measured using a modified protocol previous described (76). […] Five hundred microliters of freshly prepared solution containing 100 μg/mL of 40 kD FITC-dextran and 100 μg/mL of 31(D Texas Red-dextran were added to the apical compartment. One thousand microliters of P buffer was added to the bottom chamber. After 2 hours incubation at 37° C., 100 μl of the basal medium was collected and the fluorescence of the transported dextran was measured with a SPECTRAMAX M5 multi-mode microplate reader (MOLECULAR DEVICES, San Jose, Calif.). The excitation wavelength and emission wavelength are 492 nm and 520 nm for FITC and 596 nm and 615 nm for Texas-red, respectively. The quantity of tracer was calculated by comparison with a standard curve. A permeability coefficient was determined using the following equation (77): Pc (cm/min)=V/(A×Co)×(C/T) where V is volume in the lower compartment (1 ml), A is the surface area of the membrane (1.12 cm^2 for the 12-well transwell used here), Co is the dextran concentration in the upper compartment at time 0 (0.1 mg/ml), and C is the dextran concentration in the lower compartment at time T of sampling (2 hours).

LPS-injured lungs [4] = assay: Western blot of occludin and ZO-1 in mouse lungs; assay type: in vivo; conditions: LPS 5 mg/kg
Procedure: as §3, with “Mass.). All LPS-challenged mice received 5 mg/kg of LPS (Escherichia coli 055:B5, 15,000,000 endotoxin units/mg protein; SIGMA-ALDRICH, St. Louis, Mo.) in 50 μl of phosphate-buffered saline (PBS) by aspiration, one day before gene transfer (n=5-11 mice/group).” for “Mass.).”
Western blots were performed as previously described in Lin, X., et al. Am J Respir Crit Care Med 183: 1689-97. […] After incubation with secondary antibody and development, bands were detected using the CHEMIDOC Imaging System (BIO-RAD, Hercules, Calif.) and quantified using the IMAGE STUDIO™ LITE software (LI-COR, Lincoln, Nebr.) or the IMAGE LAB software (BIO-RAD, Hercules, Calif.).

LPS-injured lungs [5] = assay: Pulmonary permeability by Evan's blue dye leakage; assay type: in vivo, mouse; conditions: LPS 5 mg/kg intratracheal, compared with naïve mice
Procedure: as §3, with “Mass.). All LPS-challenged mice received 5 mg/kg of LPS (Escherichia coli 055:B5, 15,000,000 endotoxin units/mg protein; SIGMA-ALDRICH, St. Louis, Mo.) in 50 μl of phosphate-buffered saline (PBS) by aspiration, one day before gene transfer (n=5-11 mice/group).” for “Mass.).”
Pulmonary permeability was measured by Evan's blue dye (EBD) leakage from blood into airways (Baluk, P., et al., Br J Pharmacol 126: 522-8 and Mammoto, A., et al., Nat Commun 4: 1759). […] 24 hrs later, EBD was extracted in formamide (FISHER […]) at 37° C. for 24 hrs and quantified by measuring spectrophotometrically at 620 nm and 740 nm, correcting by using formula E620 (EBD)=E620−(1.426×E740+0.030) (Standiford, T. J., et al., J Immunol 155: 1515-24).

[6] = biological target: MRCKα of primary rat alveolar type I (ATI) cells (rat) (UniProt O54874); assay: cell-based or functional assay
Sequence of UniProt O54874 (O54874 whole entry): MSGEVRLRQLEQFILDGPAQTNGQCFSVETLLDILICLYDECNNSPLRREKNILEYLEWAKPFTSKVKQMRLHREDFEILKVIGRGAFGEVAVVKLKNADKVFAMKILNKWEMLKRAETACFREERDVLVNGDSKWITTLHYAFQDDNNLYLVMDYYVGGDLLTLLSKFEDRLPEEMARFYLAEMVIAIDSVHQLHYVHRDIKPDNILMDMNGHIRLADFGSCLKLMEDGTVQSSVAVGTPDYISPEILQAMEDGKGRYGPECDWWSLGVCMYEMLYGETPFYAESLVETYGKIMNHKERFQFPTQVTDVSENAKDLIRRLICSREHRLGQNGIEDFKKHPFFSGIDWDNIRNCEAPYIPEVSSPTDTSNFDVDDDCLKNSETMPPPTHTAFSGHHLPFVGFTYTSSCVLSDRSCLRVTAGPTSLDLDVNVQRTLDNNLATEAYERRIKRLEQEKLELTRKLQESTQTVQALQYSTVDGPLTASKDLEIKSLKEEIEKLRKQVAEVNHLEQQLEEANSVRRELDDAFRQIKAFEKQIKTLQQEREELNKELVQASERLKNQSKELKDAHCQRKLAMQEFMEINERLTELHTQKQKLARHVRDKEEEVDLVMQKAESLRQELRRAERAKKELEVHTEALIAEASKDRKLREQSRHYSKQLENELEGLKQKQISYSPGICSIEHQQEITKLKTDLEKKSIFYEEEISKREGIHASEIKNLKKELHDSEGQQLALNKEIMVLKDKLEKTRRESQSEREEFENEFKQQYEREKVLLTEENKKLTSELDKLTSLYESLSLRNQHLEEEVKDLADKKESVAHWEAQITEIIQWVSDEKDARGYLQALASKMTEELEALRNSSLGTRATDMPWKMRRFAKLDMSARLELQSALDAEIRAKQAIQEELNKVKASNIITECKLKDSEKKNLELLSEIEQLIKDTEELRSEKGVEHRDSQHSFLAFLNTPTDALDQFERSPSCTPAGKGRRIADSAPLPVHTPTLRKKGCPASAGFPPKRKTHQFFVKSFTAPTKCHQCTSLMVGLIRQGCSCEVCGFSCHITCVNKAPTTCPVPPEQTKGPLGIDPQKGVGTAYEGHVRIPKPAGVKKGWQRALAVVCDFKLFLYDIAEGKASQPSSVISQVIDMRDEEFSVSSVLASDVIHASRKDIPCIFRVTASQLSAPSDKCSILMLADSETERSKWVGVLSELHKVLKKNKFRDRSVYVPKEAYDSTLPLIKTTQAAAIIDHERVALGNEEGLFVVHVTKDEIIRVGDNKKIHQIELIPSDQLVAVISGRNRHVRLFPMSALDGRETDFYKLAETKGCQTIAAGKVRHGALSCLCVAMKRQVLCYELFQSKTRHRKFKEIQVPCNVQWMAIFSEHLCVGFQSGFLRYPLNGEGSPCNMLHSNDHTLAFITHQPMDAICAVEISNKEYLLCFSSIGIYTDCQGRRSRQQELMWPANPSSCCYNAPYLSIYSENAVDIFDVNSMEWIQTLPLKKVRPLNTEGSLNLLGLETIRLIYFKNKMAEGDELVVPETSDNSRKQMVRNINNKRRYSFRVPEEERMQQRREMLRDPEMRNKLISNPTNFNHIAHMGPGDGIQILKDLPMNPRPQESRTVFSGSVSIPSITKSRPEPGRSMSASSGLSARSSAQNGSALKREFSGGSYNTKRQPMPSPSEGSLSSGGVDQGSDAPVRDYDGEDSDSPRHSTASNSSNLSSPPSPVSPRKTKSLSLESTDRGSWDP

O=C(Nc1cn[nH]c1-c1ccccn1)c1nn(C2CCNCC2)cc1Cl [BDP5290]
baseline TEER (ATI cells [1]; 2 μM inhibitor): decreased | β1 subunit-induced increase of barrier integrity (TEER) under MRCKα inhibition (ATI cells [1]; 2 μM inhibitor): prevented β1 subunit-induced increase of barrier integrity

Cc1ccc2c(c1)C(=O)C1(O)CCN(c3ccccc3)C1=N2 (stereo not drawn) [blebbistatin]
β1-induced increase in TEER under myosin II inhibition (ATI cells [1]; pretreatment 20 μM): prevented the increase in TEER | β1-induced upregulation of occludin in presence of blebbistatin (ATI cells [2]; ATI cells transfected with rat β1, blebbistatin 1, 10 or 100 uM): significantly suppress the upregulation of occludin

C[C@H]1c2cccc(O)c2C(=O)C2=C(O)[C@]3(O)C(=O)C(C(N)=O)=C(O)[C@@H](N(C)C)[C@@H]3[C@@H](O)[C@@H]21 [doxycycline]
doxycycline concentration of maximum induction of β1 subunit (16HBE14o-cells): 1000 ng/mL

C[C@@H]1O[C@@H](O[C@H]2C[C@@H](O)[C@]3(CO)[C@H]4[C@H](O)C[C@]5(C)[C@@H](C6=CC(=O)OC6)CC[C@]5(O)[C@@H]4CC[C@]3(O)C2)[C@H](O)[C@H](O)[C@H]1O [ouabain]
β1-induced upregulation of occludin in presence of ouabain (ATI cells [2]; ATI cells transfected with rat β1, ouabain 10 nM, 100 nM or 1000 nM): did not block the upregulation of occludin

CCC(NC(C)C)C(O)c1ccc(O)c2[nH]c(=O)ccc12 (stereo not drawn) [procaterol, Procaterol]
increase of AFC (mouse lungs): 145%

lipopolysaccharide
permeability to 4 kD Dextran after lipopolysaccharide (ATI cells [3]): increased permeability | levels of ZO-1 and occludin in lungs after LPS injury (LPS-injured lungs [4]): reduced levels | TEER after lipopolysaccharide (ATI cells [1]; 1 μg/ml, 24 hours): decreased TEER | increase of pulmonary leakage in response to LPS (LPS-injured lungs [5]): three- to four-fold

rat Na+, K+-ATPase β1 subunit (from UniProt P07340 1-304)
phosphorylation of myosin light chain 2 (MLC2) at Ser19, western blot after β1 subunit overexpression in ATI cells [6]: 2 fold
